Experimental data as given in patent publication US20050051179A1, “Simple apparatus for preparing experimental models of brain neuronal damage and preparation of secondary brain damage model with methods for evaluation of drug efficacy of novel compounds against brain damage and memory-related events” (priority 2003, published 2005).

Key:
[1] = test system: SBD generated with the drop weight apparatus; test: MRI findings and cerebral blood flow (CBF) velocity after drop-weight impact (240 cm·g); format: in vivo, dog; settings: dogs
Source text: (§1) Eight healthy 4-year-old male Beagle dogs were anesthetized before a square piece of skull (1.2×1.2 cm^2) was craniectomized. As two different cerebral injuries were involved in the study, a unilateral parietal bone was drilled and the brain surface surgically exposed without removing the dura mater. In two randomized dogs, a self-designed 5-mm spherical DCN with reproducibility was applied to generate concussion (CC in Table 1). In the remaining four dogs, the WD method was employed under the following experimental conditions: a weight of 12-g mass with a drop-distance of 20 cm to generate an impact of 240 cm·g.
(§2) MRI findings were performed with superconductor magnetism of magnetic field intensity 0.5T (Flexart MRT-50GP; Toshiba Medical Co., Ltd.). CBF velocities of DCN (n=2) and drop-weight-inflicted (n=4) dogs (including craniectomized skull-replaced dogs) were measured via MRI using the 3D-phase shift magnetic resonance angiography with presaturation pulse (PAMRA: TE=25, TR=10). Craniectomized skull-chips were replaced and kept in position with adhesive.

[2] = test system: direct contusion nest (DCN) injury; test: MRI findings and cerebral blood flow (CBF) velocity after direct contusion nest (DCN); format: in vivo, dog
Source text: as §1, §2

[3] = test system: pyramidal cells of hippocampal CA1 field; test: Viable pyramidal cell counts per unit area, hippocampal CA1 field, after drop-weight impact; format: in vivo, rat; settings: rats, 3 mg/kg i.p. before impact
Experimental: (§3) Male Fisher rats weighing 400-450 g were anesthetized with sodium pentobarbital (Nembutal; Dainippon Pharmaceutical Co., Ltd., Osaka) by i.p. administration (40 mg/kg) before the head was restrained in a stereotaxic apparatus. Weight 20 of 5-gram mass positioned at a drop-distance of 10 cm was dropped onto the brain surface under gravitational force to generate an impact of 50 cm·g, causing a head injury. Follow-up studies of the progress of subsequent events from 1 to 48 hours post-impact were monitored with the MRI approach.
(§4) Immediately after impact, MRI diagnoses were conducted to categorize animals as (i) no injuries, (ii) no subarachinoid hemorrhage and (iii) external wounds and hemorrhages inflicted on brain surface, etc. Animals having such criteria were omitted from subsequent studies. Animals with confirmed cerebral injuries but without these criteria were divided into groups of six each.
Along with MRI findings from 1 to 48 hours post-impact, brain injuries were also evaluated histopathologically using the cardioperfusion method with 200 mL of physiological saline (0.9 w/w %) to first remove blood cells followed by fixation with 50 mL of 0.1 MPBS (pH: 7.4) containing 4% paraformaldehyde (PFA). Brain tissues were then embedded in paraffin and coronal sections of the brain specimens were sectioned before staining with the hematoxylin-eosin (H&E) reagent.
With regard to the therapeutic effects of chemical agents tested, viable pyramidal cell counts per unit area (1 mm^2) of tissues in hippocampal CA1 and CA3 fields were determined to derive the area of tissue damage/injury using image-analysis software (NIH Co., Ltd.; Image Ver. 1.55). As for the extent of tissue damage, slices with the maximum damage area between two groups were compared.

[4] = test system: pyramidal cells of hippocampal CA3 field; test: Viable pyramidal cell counts per unit area, hippocampal CA3 field, after drop-weight impact; format: in vivo, rat; settings: rats, 3 mg/kg i.p. before impact
Experimental: as §3
Immediately after impact, MRI diagnoses were conducted to categorize animals as (i) no injuries, (ii) no subarachinoid hemorrhage and (iii) external wounds and hemorrhages inflicted on brain surface, etc. Animals having such criteria were omitted from subsequent studies. […]
Along with MRI findings from 1 to 48 hours post-impact, brain injuries were also evaluated histopathologically using the cardioperfusion method with 200 mL of physiological saline (0.9 w/w %) to first remove blood cells followed by fixation with 50 mL of 0.1 MPBS (pH: 7.4) containing 4% paraformaldehyde (PFA). […]
With regard to the therapeutic effects of chemical agents tested, viable pyramidal cell counts per unit area (1 mm^2) of tissues in hippocampal CA1 and CA3 fields were determined to derive the area of tissue damage/injury using image-analysis software (NIH Co., Ltd.; Image Ver. 1.55). […]

[5] = test system: SBD derived from experimental head injury; test: MRI diagnosis of cerebral injuries after drop-weight impact (SBD model); format: in vivo, rat; settings: rats, 3 mg/kg i.p. before impact of 50 cm·g; 1 hr post-impact
Experimental: as §3, §4

C[C@]12N[C@H](Cc3ccccc31)c1ccccc12 [MK-801]
time-related expansion of damage after impact (MRI) ([1]; drop weight group with drug pretreatment, 240 cm·g): not established
SBD development (CBF peak at 3 hr after impact) ([1]; drop-weight-inflicted, drug-pretreated group): effectively suppressed SBD development
CBF after the high values registered immediately after impact ([2]; dogs subjected to DCN, drug-treated group (same as non-treated)): no subsequent changes thereafter
damage field with time (MRI) ([2]; dogs, DCN group with drug pretreatment): damage area had expanded
suppression of SBD exacerbation (viable cell counts 48 hr vs 1 hr post-impact) [3]: could not completely suppress SBD exacerbation
viable pyramidal cell counts per unit area, CA1 field, decrease compared with the control group ([3]; 1 hr post-impact, non-treated 59.2%): 66.4%
viable pyramidal cell counts per unit area, CA1 field, decrease compared with the control group ([3]; 48 hr post-impact, non-treated 44.5%): 54.8%
viable pyramidal cell counts per unit area, CA3 field, decrease (rate) ([4]; 1 hr post-impact, non-treated 45.9%): 63.0%
viable pyramidal cell counts per unit area, CA3 field, decrease (rate) ([4]; 48 hr post-impact, non-treated 37.6%): 61.2%
T2-weighted high-signal and T1-weighted low-signal areas (MRI) [5]: expanded
